# According to patent publication US20090054376A1, “BENZOFURAN DERIVATIVES WITH THERAPEUTIC ACTIVITIES” (Pharmos Corporation, priority 2005, published 2009):
# Columns and labels:
# [1] = system: CFA induced rheumatoid arthritis; test: CFA induced rheumatoid arthritis; assay type: in vivo, Female Lewis rats
# Experimental: Female Lewis rats (125 g average body weight, Harlan, Israel), at least eight per treatment group were used in this study. CFA was prepared by combining 100 mg of Mycobacterium Tuberculosis (Difco) with 5 ml of incomplete Freund's adjuvant and grinding for about 3 minutes the resulting mixture until a brownish suspension was obtained. The CFA suspension was administered s.c. at the base of the tail, 0.2 ml/animal. Three tests were performed to evaluate the pain and inflammation caused by the disease. These tests were performed before CFA injection to establish baseline values and 14, 21 and 28 days after disease induction. Compounds of the invention were administered daily for fourteen days p.o. at a dose of 10 mg/kg starting on day 14, after disease onset. A group of animals treated with vehicle only at 5 ml/kg served as control.
# The parameters monitored were as detailed in Example 18 and include paw edema and redness, and response to thermal and mechanical pain stimuli. At the end of the treatment period the animals were euthanized. The paws were cut and stored in a solution of 4% formalin until histopathological evaluation.
# The differences among various treatment groups between the severity of the clinical signs, as expressed by paw swelling and redness, as well as the differences in pain responses, as expressed by Latency Time (sec) and Force (g) needed to observe withdrawal of the paw following thermal and mechanical stimuli, and finally the tissue damage, as expressed by the histological scores, were compared using analysis of variance ANOVA followed by post-hoc t-Test. A value of p<0.05 is considered to be statistically significant.
# [2] = system: mechanical allodyna after chronic constriction of the sciatic nerve; test: Neuropathic pain, chronic constriction of the sciatic nerve (CCI); assay type: in vivo, Male Sprague Dawley rats; settings: four and a half hour after administration
# Experimental: The analgesic activity of compounds of the invention was assessed in a chronic constriction induced (CCI) model of neuropathic pain. […] The development of mechanical allodyna was monitored using a Dynamic Plantar Sesthesiomether as described in Example 18. This apparatus is an automated version of the classical von Frey filaments' test.
# Pre-surgery baseline values were ascertained as the mean of 2 pre-surgery values. Once the baseline values are established, the animals were surgically prepared by constricting the right sciatic nerve with 4-0 chromic cat gut loose ligatures. On day 11 post-operation, the animals that have developed mechanical allodyna were arbitrarily allocated to the various treatment groups based on the pre-surgery values.
# The design was randomized, performed in a masked fashion as to whether drug or vehicle is being given. Male Sprague Dawley rats (average body weight 240 g, Harlan, Israel), were allowed to acclimatize to the behavioral testing equipment prior to testing. On the testing day, the animals, at least six per treatment group, were administered the compounds and controls at a volume dosage of 5 ml/kg. Fifteen minutes later, the mechanical stimulus was applied and the force, measured in grams, causing a withdrawal response for each of the ipsilateral and contralateral hind paws was evaluated.
# Results are expressed as mean±SEM for each treatment group and the differences among those groups are analyzed by analysis of variance (ANOVA) followed by post-hoc Tukey's test. A value of p<0.05 is considered to be statistically significant. Thereafter the difference in the force to be applied to the injured paw as compared to the normal paw was calculated. Δforce, expressed in grams, was measured at baseline and 1 and 4.5 hours after treatment.
smiles,measurement,setting,value
"CCCCCCC(C)(C)c1cc(O)c2c(c1)OC1C(O)CCCCC21 (stereo not drawn) [Compound C7S-2, 2-(1,1-dimethylheptyl)-5,6,7,8,9,9a-hexahydro-4bH-10-oxa-benzo[α]azulen-4,9-diol]",decrease in clinical score as compared to first day of treatment,"[1]; after two weeks of treatment, 10 mg/kg p.o.",44%
same,average clinical score regarding the edema,"[1]; after two weeks of treatment, 10 mg/kg p.o. daily, vehicle 6.67±1.85",3.29±0.97
same,average clinical score regarding the edema,"[1]; day 14, at initiation of treatment, 10 mg/kg p.o. group, vehicle 6.00±1.18",5.86±1.70
same,difference in average clinical score in favor of treated animals,"[1]; day 21, after a week of treatment, 10 mg/kg p.o. daily, vs vehicle",1.89 unit
same,Force increase over baseline,"[1]; day 28, 10 mg/kg p.o.",about 63%
same,Latency increase over baseline values of day 14,"[1]; day 28, 10 mg/kg p.o.",more than 32%
same,Latency prolonged following thermal stimulus,"[1]; day 28 vs day 14, 10 mg/kg p.o.",about 5 seconds
same,increase of Force needed to elicit a withdrawal response,"[1]; day 28 vs day 14, 10 mg/kg p.o., mechanical stimulus",11.1 grams
same,inhibition of the pain behavior (expressed in Δforce) as compared to baseline,[2]; 0.005 mg/kg i.v.,58%
same,inhibition of the pain behavior (expressed in Δforce) as compared to baseline,[2]; 0.01 mg/kg i.v.,67%
same,inhibition of the pain behavior (expressed in Δforce) as compared to baseline,[2]; 0.025 mg/kg i.v.,84%
same,inhibition of the pain behavior (expressed in Δforce) as compared to baseline,[2]; 0.5 mg/kg i.v.,92%
